Data: patent US4217305A, “Phenylethanolamine derivatives” (Yamanouchi Pharmaceutical Co., Ltd., priority 1977, dated 1980)
Structures can show the parent of a compound that is named as a salt. Where two headings read alike, the source gives them in different places.

Assays:
Type in all cases: in vivo
[1] = tested on: spontaneously hypertensive rats; experiment: Antihypertensive effects in spontaneously hypertensive rats, oral administration; conditions: at 10 mg/Kg p.o., mean ± S.E. of 5 to 10 animals, measured indirectly from the tail
Description: B. Antihypertensive effects in spontaneously hypertensive rats: Oral administration: The systolic blood pressure was measured indirectly from the tail using a programmed electro-sphygmanometer (Nacro Bio-Systems Inc., PE-300) on spontaneously hypertensive rats having a systolic blood pressure of higher than 150 mmHg, the result being shown in Table II.

α-Adrenergic = α-Adrenergic blocking action: antagonism of hypertensive response to phenylephrine in anesthetized rats; conditions: for α-blocking (Rat) ED50: i.v.; for ED50: Rattus norvegicus, iv, read-out: α-blocking (Rat) ED50
Description: A. α-Adrenergic blocking action: (a) The blood pressure was measured in rats anesthetized with urethane and treated with pentolinium.

β-Adrenergic = β-Adrenergic blocking action: antagonism of isoproterenol induced tachycardia in rats; conditions: reserpine pretreated, pentobarbital anesthetized rats, isoproterenol 0.1 μg/Kg iv.; for β-blocking (Rat) ED50: i.v.; for ED50: Rattus norvegicus, iv
Description: Bilateral vagotomy was performed at the neck. The effects of the test samples to antagonize the isoproterenol (0.1 μg/Kg iv.) induced tachycardia were measured and the results were shown in Table I.

[2] = urethane anesthetized, pentolinium treated rats, phenylephrine 10 μg/Kg i.v., hydrochloride
[3] = urethane anesthetized, pentolinium treated rats, phenylephrine 10 μg/Kg i.v.

SMILES | antihypertensive effect: change in systolic blood pressure [1] | ED50 (α-Adrenergic; [3]) | ED50 (β-Adrenergic) | other results
COc1ccccc1CCC(C)NCC(O)c1ccc(C)c(S(N)(=O)=O)c1.Cl (stereo not drawn) [36(i1 + i2), 5-{1-Hydroxy-2-[3-(2-methoxyphenyl)-1-methylpropylamino]-ethyl}-2-methylbenzenesulfonamide hydrochloride] | – | – | – | antihypertensive effect: change in systolic blood pressure ([1]; hydrochloride, 10 mg/kg): -40 ± 6.6 mmHg; α-blocking (Rat) ED50 (α-Adrenergic; [2]): 0.43 mg/kg; β-blocking (Rat) ED50 (β-Adrenergic; hydrochloride): 0.095 mg/kg
COc1ccccc1CCC(C)NCC(O)c1ccc(C)c(S(N)(=O)=O)c1.Cl (stereo not drawn) [36(i1), 5-{1-hydroxy-2-[3-(2-methoxyphenyl)-1-methylpropylamino]ethyl}-2-methylbenzenesulfonamide hydrochloride] | – | – | – | antihypertensive effect: change in systolic blood pressure ([1]; hydrochloride, 10 mg/kg): -18 ± 6.1 mmHg; α-blocking (Rat) ED50 (α-Adrenergic; [2]): 1.2 mg/kg; β-blocking (Rat) ED50 (β-Adrenergic; hydrochloride): 0.071 mg/kg
COc1ccccc1CCC(C)NCC(O)c1ccc(C)c(S(N)(=O)=O)c1.Cl (stereo not drawn) [36(i2), 5-{1-hydroxy-2-[3-(2-methoxyphenyl)-1-methylpropylamino]ethyl}-2-methylbenzenesulfonamide hydrochloride] | – | – | – | antihypertensive effect: change in systolic blood pressure ([1]; hydrochloride, 10 mg/kg): -33 ± 5.7 mmHg; α-blocking (Rat) ED50 (α-Adrenergic; [2]): 0.093 mg/kg; β-blocking (Rat) ED50 (β-Adrenergic; hydrochloride): 0.41 mg/kg
COc1ccccc1OCC(C)NCC(O)c1ccc(C)c(S(N)(=O)=O)c1 (stereo not drawn) [69(i1 + i2), 5-{1-hydroxy-2-[2-(2-methoxyphenoxy)-1-methylethylamino]ethyl}-2-methylbenzenesulfonamide] | – | – | – | antihypertensive effect: change in systolic blood pressure ([1]; 10 mg/kg): -43 ± 5.8 mmHg; α-blocking (Rat) ED50 (α-Adrenergic; [3]): 0.27 mg/kg; β-blocking (Rat) ED50 (β-Adrenergic): 0.083 mg/kg
COc1ccccc1OCC(C)NCC(O)c1ccc(C)c(S(N)(=O)=O)c1 (stereo not drawn) [69(i1), 5-{1-hydroxy-2-[2-(2-methoxyphenoxy)-1-methylethylamino]ethyl}-2-methylbenzenesulfonamide] | – | – | – | antihypertensive effect: change in systolic blood pressure ([1]; 10 mg/kg): -28 ± 7.7 mmHg; α-blocking (Rat) ED50 (α-Adrenergic; [3]): 0.24 mg/kg; β-blocking (Rat) ED50 (β-Adrenergic): 0.057 mg/kg
COc1ccccc1OCC(C)NCC(O)c1ccc(C)c(S(N)(=O)=O)c1 (stereo not drawn) [69(i2), 5-{1-hydroxy-2-[2-(2-methoxyphenoxy)-1-methylethylamino]ethyl}-2-methylbenzenesulfonamide] | – | – | – | antihypertensive effect: change in systolic blood pressure ([1]; 10 mg/kg): -32 ± 6.7 mmHg; α-blocking (Rat) ED50 (α-Adrenergic; [3]): 0.054 mg/kg; β-blocking (Rat) ED50 (β-Adrenergic): 0.47 mg/kg
CC(NCC(O)c1ccc(O)c(S(N)(=O)=O)c1)C1COc2ccccc2O1 (stereo not drawn) [70(i1'), 2-hydroxy-5-{1-hydroxy-2-[1-(1,4-benzodioxan-2-yl)ethylamino]ethyl}benzenesulfonamide] | -27 ± 6.1 mmHg | – | – | –
COc1ccc(C(O)CNC(C)C2COc3ccccc3O2)cc1S(N)(=O)=O (stereo not drawn) [72(i1'), 5-{1-hydroxy-2-[1-(1,4-benzodioxan-2-yl)ethylamino]ethyl}-2-methoxybenzenesulfonamide hydrochloride (i1 ')] | -30 ± 4.3 mmHg | – | – | –
COc1ccccc1OCC(C)(C)NCC(O)c1ccc(C)c(S(N)(=O)=O)c1 (stereo not drawn) [Example 9] | -25 ± 4.2 mmHg | 0.89 mg/kg | 0.26 mg/kg | –
COc1cc(O)ccc1OCCNCC(O)c1ccc(C)c(S(N)(=O)=O)c1 (stereo not drawn) [Example 13, 5-{1-Hydroxy-2-[2-(4-hydroxy-2-methoxyphenoxy)ethylamino]ethyl}-2-methylbenzenesulfonamide] | – | 0.23 mg/kg | 0.014 mg/kg | –
Cc1ccc(C(O)CNCCOc2ccccc2CO)cc1S(N)(=O)=O (stereo not drawn) [Example 15, 5-{1-Hydroxy-2-[2-(2-hydroxymethylphenoxy)ethylamino]-ethyl}-2-methylbenzenesulfonamide] | -11 ± 4.3 mmHg | 0.13 mg/kg | 0.15 mg/kg | –
C=CCOc1ccccc1OCCNCC(O)c1ccc(C)c(S(N)(=O)=O)c1.Cl (stereo not drawn) [Example 18, 5-{2-[2-(2-Allyloxyphenoxy)ethylamino]-1-hydroxyethyl}-2-methylbenzenesulfonamide hydrochloride] | -34 ± 5.2 mmHg | – | – | –
Cc1ccc(C(O)CNC(C)CCc2ccccc2)cc1S(N)(=O)=O.Cl (stereo not drawn) [Example 24, 5-[1-hydroxy-2-(1-methyl-3-phenylpropylamino)ethyl]-2-methylbenzenesulfonamide hydrochloride] | -27 ± 6.1 mmHg | – | – | –
COc1ccc(C(O)CNC(C)CCc2ccccc2)cc1S(N)(=O)=O.Cl (stereo not drawn) [Example 25, 5-[1-Hydroxy-2-(1-methyl-3-phenylpropylamino)ethyl]-2-methoxybenzenesulfonamide hydrochloride] | – | 1.3 mg/kg | 0.035 mg/kg | –
Cc1ccc(C(O)CNC(C)C2COc3ccccc3O2)cc1S(N)(=O)=O (stereo not drawn) [Example 28] | -23 ± 4.3 mmHg | 1.1 mg/kg | 0.42 mg/kg | –
COc1cc(C(O)CNC(C)CCc2ccccc2)cc(S(N)(=O)=O)c1.Cl (stereo not drawn) [Example 30, 3-[1-Hydroxy-2-(1-methyl-3-phenylpropylamino)ethyl]-5-methoxybenzenesulfonamide hydrochloride] | – | 1.8 mg/kg | 0.052 mg/kg | –
COc1ccccc1OCC(C)NCC(O)c1ccc(OC)c(S(N)(=O)=O)c1.Cl (stereo not drawn) [Example 34, 5-{1-Hydroxy-2-[2-(2-methoxyphenoxy)-1-methylethylamino]-ethyl}-2-methoxybenzenesulfonamide hydrochloride] | -20 ± 4.3 mmHg | 0.068 mg/kg | 0.28 mg/kg | –
CCOc1ccccc1OCC(C)NCC(O)c1ccc(C)c(S(N)(=O)=O)c1.Cl (stereo not drawn) [Example 39, 5-{1-Hydroxy-2-[2-(2-ethoxyphenoxy)-1-methylethylamino]-ethyl}-2-methylbenzenesulfonamide hydrochloride] | -11 ± 5.5 mmHg | 0.066 mg/kg | 0.27 mg/kg | –
Cc1ccc(C(O)CNC(C)COc2ccccc2O)cc1S(N)(=O)=O.Cl (stereo not drawn) [Example 41, 5-{1-Hydroxy-2-[2-(2-hydroxyphenoxy)-1-methylethylamino]-ethyl}-2-methylbenzenesulfonamide hydrochloride] | -30 ± 4.9 mmHg | 0.66 mg/kg | 0.044 mg/kg | –
Cc1ccc(C(O)CNCCOc2ccc(O)cc2)cc1S(N)(=O)=O.Cl (stereo not drawn) [Example 45, 5-{1-Hydroxy-2-[2-(4-hydroxyphenoxy)ethylamino]ethyl}-2-methylbenzenesulfonamide hydrochloride] | – | 0.86 mg/kg | 0.013 mg/kg | –
COc1cc(C)ccc1OCCNCC(O)c1ccc(C)c(S(N)(=O)=O)c1.Cl (stereo not drawn) [Example 46, 5-{1-Hydroxy-2-[2-(2-methoxy-4-methylphenoxy)ethylamino]-ethyl}-2-methylbenzenesulfonamide hydrochloride] | -20 ± 4.5 mmHg | – | – | –
COc1ccccc1OCCNCC(O)c1ccc(OC)c(S(N)(=O)=O)c1.Cl (stereo not drawn) [Example 48, 5-{1-Hydroxy-2-[2-(2-methoxyphenoxy)ethylamino]ethyl}-2-methoxybenzenesulfonamide hydrochloride] | -49 ± 4.9 mmHg | – | – | –
COc1cc(CO)ccc1OCCNCC(O)c1ccc(C)c(S(N)(=O)=O)c1 (stereo not drawn) [Example 50] | – | 0.3 mg/kg | 0.049 mg/kg | –
CCOc1cc(CO)ccc1OCCNCC(O)c1ccc(C)c(S(N)(=O)=O)c1 (stereo not drawn) [Example 52, 5-{1-Hydroxy-2-[2-(2-ethoxy-4-hydroxymethylphenoxy)ethylamino]ethyl}-2-methylbenzenesulfonamide] | – | 1.1 mg/kg | 0.022 mg/kg | –
CCOc1ccccc1OCCNCC(O)c1ccc(C)c(S(N)(=O)=O)c1.Cl (stereo not drawn) [Example 60, 5-{1-Hydroxy-2-[2-(2-ethoxyphenoxy)ethylamino]ethyl}-2-methylbenzenesulfonamide hydrochloride] | -31 ± 2.8 mmHg | – | – | –
CCOc1ccccc1OCCNCC(O)c1ccc(OC)c(S(N)(=O)=O)c1.Cl (stereo not drawn) [Example 61, 5-{1-Hydroxy-2-[2-(2-ethoxyphenoxy)ethylamino]ethyl}-2-methoxybenzenesulfonamide hydrochloride] | -54 ± 5.4 mmHg | – | – | –
CCOc1ccccc1OCCNCC(O)c1ccc(O)c(S(N)(=O)=O)c1.Cl (stereo not drawn) [Example 62, 2-Hydroxy-5-{1-hydroxy-2-[2-(2-ethoxyphenoxy)ethylamino]-ethyl}benzenesulfonamide hydrochloride] | -47 ± 6.6 mmHg | – | – | –
Cc1ccc(C(O)CNCCOc2ccccc2O)cc1S(N)(=O)=O (stereo not drawn) [Example 63, 5-{1-Hydroxy-2-[2-(2-hydroxyphenoxy)ethylamino]ethyl}-2-methylbenzenesulfonamide] | – | 0.27 mg/kg | 0.08 mg/kg | –
CC(CCc1ccccc1)NCC(O)c1ccc(N)c(S(N)(=O)=O)c1 (stereo not drawn) [Example 64, 2-Amino-5-[1-hydroxy-2-(1-methyl-3-phenylpropylamino)ethyl]benzenesulfonamide] | – | 0.2 mg/kg | 0.12 mg/kg | –
CC(CCc1ccccc1)NCC(O)c1ccc(O)c(C(N)=O)c1 (stereo not drawn) [Labetalol, 5-[1-hydroxy-2-(1-methyl-3-phenyl-propyl)aminoethyl]salicylamide, reference compound] | -10 ± 3.6 mmHg | – | – | ED50 (α-Adrenergic): 1.1 mg/kg
